Assay results: patent publication US8969555B2, “Bicyclic pyrimidine compounds” (Eli Lilly and Company, priority 2013, dated 2015)

Experiments:
endogenous autotaxin = target: T1, endogenous autotaxin (Homo sapiens, UniProt Q13822); experiment: Reduction of LPA in the Presence of Human Plasma; assay type: biochemical; conditions: 90% pooled human plasma, 3 hours at 37° C., total LPA by mass spec; arithmetic mean
T1 construct: The increased endogenous LPC levels are cleaved by endogenous autotaxin; tissue Lampire Biologicals; host or cells: pooled human plasma (healthy female donors, sodium heparin)

[1] = target: T2, recombinant human autotaxin (Homo sapiens, UniProt Q13822); experiment: Inhibition of Autotaxin as Measured by Choline Release; assay type: biochemical; conditions: LPC 16:0 30 μM, 37° C. 1 hour, arithmetic mean
T2 construct: full length human autotaxin with a C-terminal His tag transfected into 293E cells; His tag (C); made in house; host or cells: 293E cells

- IC50 (endogenous autotaxin): 10 nM
- IC50 [1]: 5.7 nM
SMILES: O=C(COCCc1cnn[nH]1)N1CCc2nc(NC3Cc4ccccc4C3)ncc2C1 [Example 1 and 1a, 1-[2-(2,3-dihydro-1H-inden-2-ylamino)-7,8-dihydropyrido[4,3-d]pyrimidin-6(5H)-yl]-2-[2-(1H-1,2,3-triazol-4-yl)ethoxy]ethanone]
